Data taken from patent US8871210B2, “Chemokine receptor antagonists and use thereof” (Ono Pharmaceutical Co., Ltd., priority 2005, dated 2014).

Molecular target: T1, CXCR4 (Homo sapiens, UniProt P61073)
T1 construct: a human T cell strain in which CXCR4 is known to be expressed; endogenous in cells; host or cells: CEM cells (human T cell strain)
Experiment: Inhibition of binding of human 125I-SDF-1 to CEM cells
Conditions: 125I-SDF-1, human T cell strain CEM cells, 4° C., 60 minutes
Description: Specifically, as a system of screening a compound that inhibits the binding between SDF-1 and CXCR4, for example a system of measuring the binding between iodine-labeled SDF-1 and a human T cell strain in which CXCR4 is known to be expressed is operable. The identical idea is possible since macrophage (R5) HIV and RANTES, MIP-1α, and MIP-1β all bind to CCR5.
Study for Inhibition of Binding Human SDF-1 to CEM Cells
To human T cell strain CEM cells in a binding buffer (containing HEPES and BSA), the test compound and ^125I-SDF-1 (NEN) were added and the mixture was incubated at 4° C. for 60 minutes. The reacted CEM cells were rapidly filtrated with a GF/B membrane filter plate (Packard) to adsorb. The plate was washed with PBS three times and then dried. Microscint+20 (Packard) was added thereto. An amount of the radioactivity bound to the CEM cells was measured using Top Count (Packard) and inhibition (%) of the test compound was calculated according to the following equation: Inhibition={(Et−Ea)/(Et−Ec)}×100
Et: amount of radioactivity when the test compound is not added,
Ec: amount of radioactivity when non-radioactive SDF-1 (Pepro Tech) is added in an amount of 1000 times as much as ^125I-SDF-1 as a test compound, and
Ea: amount of radioactivity when the test compound is added.

T1 sequence (P61073 whole entry): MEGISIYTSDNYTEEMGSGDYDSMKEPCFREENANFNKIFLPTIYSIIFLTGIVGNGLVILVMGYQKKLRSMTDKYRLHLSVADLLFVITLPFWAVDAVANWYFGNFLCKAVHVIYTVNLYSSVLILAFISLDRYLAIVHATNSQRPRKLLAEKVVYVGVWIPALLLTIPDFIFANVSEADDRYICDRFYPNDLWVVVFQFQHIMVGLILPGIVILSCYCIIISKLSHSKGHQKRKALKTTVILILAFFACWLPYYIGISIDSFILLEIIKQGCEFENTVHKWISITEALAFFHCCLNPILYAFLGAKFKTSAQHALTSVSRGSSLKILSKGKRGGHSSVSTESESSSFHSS

SMILES: Cc1ccsc1CN1CCC2(CC1)CCN(Cc1ccc(C(=O)C(Cc3ncc[nH]3)Cc3ncc[nH]3)cc1)C2 [compound 14, 3-(1H-imidazol-2-yl)-2-(1H-imidazol-2-ylmethyl)-1-[4-({8-[(3-methyl-2-thienyl)methyl]-2,8-diazaspiro[4.5]dec-2-yl}methyl)phenyl]propan-1-one]
- IC50: 11 nM
